# Measured values published in patent US8329617B2, “Compositions and methods for synergistic manipulation of plant and insect defenses” (Plant Bioscience Limited, priority 2007, dated 2012).
# Legend:
# Bemisia tabaci, GUA MIX = assay: Glasshouse simulator trial: B. tabaci pupae protein on tomato plants treated with cis-jasmone and PBO; format: in vivo; conditions: for μg (Av) Total Protein (B. tabaci pupae): simulator, ten tomato plants per treatment, ten adult whiteflies per plant, ~16 days
# Experimental: (§1) In all bioassay experiments the control plants were sprayed with deionised water. Initially seven treatments were used (Table 1) to test all chemical variables. All treatments were applied hydraulically with a spray simulator after which the plants were separated according to treatment (with cis-jasmone controls being separated) and left for 2 hours prior to insect application.
# (§2) Analysis of protein in each treatment was conducted using Bradford Reagent: the data were analysed using the computer programme ‘GraFit’ (Erithacus software, Berkeley). To calculate the calibration curve a single logarithmic curve was used with regression analysis taking the values of the treatment wells (averages of the three readings taken: technical replicates).
# A new method for the investigation of the development of whitefly to the pupal stage on tomatoes and cotton was used. […] These were checked for protein after ˜16 days using Bradford reagent.
# Adults were added to the plant 2 h after treatment, and removed after 24 h. The eggs laid were then left for 16-18 days until they reached the pupal stage. The total pupal protein on the plant was tested using the Bradford reagent.
# As described above 10 adult females were released on to each tomato plant, ten/treatment and after ˜16 days pupae were removed using a scalpel blade. These were checked for total protein using Bradford reagent. Plants were put into glasshouse simulators (one/treatment) and kept at 28° C., 12 L: […] and 80% R.H.
# Myzus persicae, US1L = assay: Glasshouse simulator trial: M. persicae protein on pepper plants treated with cis-jasmone and PBO; format: in vivo; conditions: for μg (Av) Total Protein (M. persicae): simulator, 25 pepper plants per treatment, three adult apterous aphids per plant, 7 days
# Experimental: as §1, §2
# To investigate developmental/fecundity effects of cis-jasmone+/−PBO (see Table 1) on Myzus persicae when applied to sweet peppers, adults were added to the plants and then using Bradford reagent, the amount of aphid protein present on the plants 7 days after treatment was measured. Esterase levels were also tested after the same interval to check for the possible induction of metabolic enzymes when using cis-jasmone. Aphids were brushed from all plants and each leaf checked individually to ensure none remained. The aphid mass for each treatment was weighed before total protein was assessed (total from all […] plants in the treatment).
# Myzus persicae were applied to sweet peppers at the rate of three adults per plant. Aphids were brushed from all plants and each leaf checked individually to ensure none remained. The aphid mass for each treatment was assessed for total protein (total from all 25 plants in the treatment) using Bradford reagent. The amount of aphid protein present on the plants 7 days after treatment was measured. Plants were put into glasshouse simulators (one/treatment) and kept at 28° C., 12 L: […] and 80% R.H.
smiles,measurement,setting,value
"CCCCOCCOCCOCc1cc2c(cc1CCC)OCO2 [PBO, 2-(2-butoxyethoxy)ethyl 6-propylpiperonyl ether]",effect of addition of PBO to cis-jasmone on reduction of insect protein (in words),"Bemisia tabaci, GUA MIX; B. tabaci on tomato, simulator trial",potentiates the effect of cis-jasmone
same,Av. Total Insect Protein μg,"Bemisia tabaci, GUA MIX; Simulator, Bemisia tabaci (GUA MIX) on Tomato (Carousel), average of weeks 1 to 3",0.156 µg
same,μg (Av) Total Protein (B. tabaci pupae),"Bemisia tabaci, GUA MIX; week 1",0.165 µg
same,μg (Av) Total Protein (B. tabaci pupae),"Bemisia tabaci, GUA MIX; week 2",0.169 µg
same,μg (Av) Total Protein (B. tabaci pupae),"Bemisia tabaci, GUA MIX; week 3",0.134 µg
same,effect of addition of PBO to cis jasmone on efficacy (in words),"Myzus persicae, US1L; M. persicae on pepper, simulator trial",does not significantly increase efficacy
same,Av. Total Insect Protein μg,"Myzus persicae, US1L; Simulator, M. persicae (US1L) on Pepper (BellBoy), average of weeks 1 to 3",14.406 µg
same,μg (Av) Total Protein (M. persicae),"Myzus persicae, US1L; week 1",14.72 µg
same,μg (Av) Total Protein (M. persicae),"Myzus persicae, US1L; week 2",14.2 µg
same,μg (Av) Total Protein (M. persicae),"Myzus persicae, US1L; week 3",14.3 µg
same,optimal concentration of PBO for esterase inhibition,esterase,1000 ppm
